Test results reported in patent US20120135923A1, “Use of Melanocortins to Treat Dyslipidemia” (IPSEN PHARMA, S.A.S., priority 2009, published 2012).
Like-named read-outs stand apart in the source and are kept apart here. Bridge positions count the residues as written; N and C are the ends. Square brackets hold non-standard residues; d marks the D form. Peptide text beside a SMILES is read from it. Bip = N[C@@H](Cc1ccc(-c2ccccc2)cc1)C(=O)O; 1Nal = N[C@@H](Cc1cccc2ccccc12)C(=O)O; 2Nal = N[C@@H](Cc1ccc2ccccc2c1)C(=O)O; d2Nal = N[C@H](Cc1ccc2ccccc2c1)C(=O)O; Bta = N[C@@H](Cc1csc2ccccc12)C(=O)O; hArg = N=C(N)NCCCC[C@H](N)C(=O)O; Pen = CC(C)(S)[C@H](N)C(=O)O; Nle = CCCC[C@H](N)C(=O)O; Ahx = NCCCCCC(=O)O; GABA = NCCCC(=O)O; βAla = NCCC(=O)O

Experiments:
[1] = biological target: T1, hMC3-R (Homo sapiens, UniProt P41968); experiment: cyclic AMP bioassay (ECL) in CHO-K1 cells; assay type: cell-based; settings: for Kb: Table 9C/9D, antagonist potency by Schild analysis, read-out: Kb hMC3-R
T1 construct: expressed in transfected cells; host or cells: CHO-K1
Method: (§1) Intracellular cyclic AMP (cAMP) levels were determined by an electrochemiluminescence (ECL) assay (Meso Scale Discovery®, Gaithersburg, Md.; referred to hereinafter as MSD). […] Transgenic CHO-K1 cells stably expressing hMC receptor subtypes 1, 3, 4 or 5 were dispensed at a density of approximately 7,000 cells/well in 384-well Multi-Array®plates (MSD) containing integrated carbon electrodes and coated with anti-cAMP antibody. Increasing concentrations of the test compounds were added and the cells were incubated for approximately 40 minutes at approximately 37° C. […] At the end of the second incubation period read buffer (Tris-buffered solution containing an ECL co-reactant and Triton X-100 at ph 7.8) was added and the cAMP levels in the cell lysates were immediately determined by ECL detection with a Sector Imager 6000 Reader® (MSD). Data were analyzed using a computer-assisted non-linear regression analysis (XL fit; IDBS) and reported as either an EC50 value or a Kb value.
(§2) The Kb value reflects the potency of an antagonist and is determined by Schild analysis. In brief, concentration-response curves of an agonist are carried out in the presence of increasing concentrations of an antagonist. […] It is calculated by extrapolating the line on a Schild plot to zero on the y-axis.

[2] = biological target: T2, hMC1-R (Homo sapiens, UniProt Q01726); experiment: cyclic AMP bioassay (ECL) in CHO-K1 cells; assay type: cell-based
T2 construct: expressed in transfected cells; host or cells: CHO-K1

[3] = biological target: T3, hMC4-R (Homo sapiens, UniProt P32245); experiment: cyclic AMP bioassay (ECL) in CHO-K1 cells; assay type: cell-based; settings: for Kb: Table 9C/9D, antagonist potency by Schild analysis, read-out: Kb MC4-R
T3 construct: expressed in transfected cells; host or cells: CHO-K1
Method: as §1, §2

[4] = biological target: T4, hMC5-R (Homo sapiens, UniProt P33032); experiment: cyclic AMP bioassay (ECL) in CHO-K1 cells; assay type: cell-based
T4 construct: expressed in transfected cells; host or cells: CHO-K1
Method: as §1, §2

[5] = biological target: T4, hMC5-R; experiment: Radioligand binding assay, [125I]-NDP-α-MSH competition, CHO-K1 membranes
[6] = biological target: T3, hMC4-R; experiment: as above
[7] = biological target: T2, hMC1-R; experiment: as above
[8] = biological target: T1, hMC3-R; experiment: as above
[9] = Table 9C/9D, read-out: EC50 hMC1-R
[10] = Table 9C/9D, read-out: EC50 hMC5-R

T1 sequence (P41968 whole entry): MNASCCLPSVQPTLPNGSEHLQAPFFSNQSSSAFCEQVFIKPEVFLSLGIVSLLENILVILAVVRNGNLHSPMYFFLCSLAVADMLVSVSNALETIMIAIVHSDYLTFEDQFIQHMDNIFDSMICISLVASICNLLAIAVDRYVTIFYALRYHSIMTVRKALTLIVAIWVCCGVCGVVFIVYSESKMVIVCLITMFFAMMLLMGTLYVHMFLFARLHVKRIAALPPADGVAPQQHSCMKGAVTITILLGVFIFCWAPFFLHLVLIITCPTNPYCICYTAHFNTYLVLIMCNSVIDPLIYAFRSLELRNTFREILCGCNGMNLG
T2 sequence (Q01726 whole entry): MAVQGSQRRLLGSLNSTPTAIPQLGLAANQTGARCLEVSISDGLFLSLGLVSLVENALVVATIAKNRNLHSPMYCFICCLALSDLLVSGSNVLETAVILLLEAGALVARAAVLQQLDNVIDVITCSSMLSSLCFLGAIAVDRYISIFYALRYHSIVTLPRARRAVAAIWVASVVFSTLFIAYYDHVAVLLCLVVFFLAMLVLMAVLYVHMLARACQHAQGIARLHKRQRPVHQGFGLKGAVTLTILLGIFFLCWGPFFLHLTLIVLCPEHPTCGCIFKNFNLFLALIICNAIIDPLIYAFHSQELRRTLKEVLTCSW
T3 sequence (P32245 whole entry): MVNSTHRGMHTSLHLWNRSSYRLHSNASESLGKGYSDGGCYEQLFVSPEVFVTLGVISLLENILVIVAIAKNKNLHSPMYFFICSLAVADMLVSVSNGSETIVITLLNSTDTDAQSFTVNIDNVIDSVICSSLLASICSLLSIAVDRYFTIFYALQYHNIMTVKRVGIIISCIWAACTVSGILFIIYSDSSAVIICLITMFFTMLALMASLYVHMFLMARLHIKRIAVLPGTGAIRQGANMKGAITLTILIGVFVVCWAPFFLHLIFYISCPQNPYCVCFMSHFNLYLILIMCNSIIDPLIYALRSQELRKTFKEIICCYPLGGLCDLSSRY
T4 sequence (P33032 whole entry): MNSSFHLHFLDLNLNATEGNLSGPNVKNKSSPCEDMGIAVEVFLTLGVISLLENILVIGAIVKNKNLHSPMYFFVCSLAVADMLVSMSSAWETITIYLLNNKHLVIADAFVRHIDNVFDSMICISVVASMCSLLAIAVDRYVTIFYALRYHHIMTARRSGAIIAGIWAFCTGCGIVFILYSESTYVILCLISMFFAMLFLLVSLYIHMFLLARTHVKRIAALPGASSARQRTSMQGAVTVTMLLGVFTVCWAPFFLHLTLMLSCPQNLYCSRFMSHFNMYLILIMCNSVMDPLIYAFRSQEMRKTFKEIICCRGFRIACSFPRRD

CC(=O)N[C@@H](CC1CCCCC1)C(=O)N[C@H]1CC(=O)NCCCC[C@@H](C(N)=O)NC(=O)CCCNC(=O)[C@H](Cc2c[nH]c3ccccc23)NC(=O)[C@H](CCCNC(=N)N)NC(=O)[C@@H](Cc2ccc3ccccc3c2)NC(=O)[C@H](Cc2c[nH]cn2)NC1=O [Ac-Cha-c(Asp-His-D-2-Nal-Arg-Trp-Gaba-Lys)-NH2]
Kb [1]: 3.02 nM
EC50 [2, 9]: 1.27 nM
Kb [3]: 0.442 nM
EC50 [4, 10]: 0.736 nM
Ki ([5]; Table 5, read-out: Ki hMC5-R): 3.91 nM
Ki ([6]; Table 5, read-out: Ki KMC4-R): 2.82 nM
Ki ([7]; Table 5, read-out: Ki hMC1-R): 0.576 nM
Ki ([8]; Table 5, read-out: Ki hMC3-R): 3.98 nM

CCCC[C@H](NC(C)=O)C(=O)N[C@H]1CSSC[C@@H](C(N)=O)NC(=O)[C@H](Cc2cccc3ccccc23)NC(=O)[C@H](CCCNC(=N)N)NC(=O)[C@@H](Cc2ccc3ccccc3c2)NC(=O)[C@H](Cc2c[nH]cn2)NC(=O)[C@@H](C)NC1=O [Ac-Nle-c(Cys-D-Ala-His-D-2-Nal-Arg-1-Nal-Cys)-NH2] (Ac-[Nle]C[dA]H[d2Nal]R[1Nal]C-NH2; disulfide 2-8)
Kb [1]: 61.5 nM
EC50 [2, 9]: 383 nM
Kb [3]: 53.6 nM
EC50 [4, 10]: 2840 nM
Ki ([5]; Table 5, read-out: Ki hMC5-R): 1660 nM
Ki ([6]; Table 5, read-out: Ki KMC4-R): 3.07 nM
Ki ([7]; Table 5, read-out: Ki hMC1-R): 114 nM
Ki ([8]; Table 5, read-out: Ki hMC3-R): 63.9 nM

CC(=O)N[C@@H](Cc1ccccc1)C(=O)N[C@H]1CSSC[C@@H](C(N)=O)NC(=O)CCCNC(=O)[C@H](Cc2c[nH]c3ccccc23)NC(=O)[C@H](CCCNC(=N)N)NC(=O)[C@@H](Cc2ccccc2)NC(=O)[C@H](Cc2c[nH]cn2)NC1=O [Ac-Phe-c(Cys-His-D-Phe-Arg-Trp-Gaba-Cys)-NH2] (Ac-FCH[dF]RW[GABA]C-NH2; disulfide 2-8)
Ki ([5]; Ki hMC5-R): 0.714 nM
Ki ([6]; Ki KMC4-R): 2.13 nM
Ki ([7]; Ki hMC1-R): 0.254 nM
Ki ([8]; Ki hMC3-R): 18.5 nM

CCCC[C@H](NC(C)=O)C(=O)N[C@H]1CSSC[C@@H](C(N)=O)NC(=O)[C@@H](C)NC(=O)[C@H](Cc2c[nH]c3ccccc23)NC(=O)[C@H](CCCNC(=N)N)NC(=O)[C@@H](Cc2ccccc2)NC(=O)[C@H](Cc2c[nH]cn2)NC(=O)[C@@H](C)NC1=O [Ac-Nle-c(Cys-D-Ala-His-D-Phe-Arg-Trp-D-Ala-Cys)-NH2] (Ac-[Nle]C[dA]H[dF]RW[dA]C-NH2; disulfide 2-9)
Ki ([5]; Table 5, read-out: Ki hMC5-R): 4940 nM
Ki ([6]; Table 5, read-out: Ki KMC4-R): 48 nM
Ki ([7]; Table 5, read-out: Ki hMC1-R): 3.93 nM
Ki ([8]; Table 5, read-out: Ki hMC3-R): 876 nM

CCCC[C@H](NC(C)=O)C(=O)N[C@@H]1C(=O)N[C@@H](Cc2c[nH]cn2)C(=O)N[C@H](Cc2ccccc2)C(=O)N[C@@H](CCCNC(=N)N)C(=O)N[C@@H](Cc2c[nH]c3ccccc23)C(=O)NCCCC(=O)N[C@H](C(N)=O)CSSC1(C)C [Ac-Nle-c(Pen-His-D-Phe-Arg-Trp-Gaba-Cys)-NH2] (Ac-[Nle][Pen]H[dF]RW[GABA]C-NH2; disulfide 2-8 (inferred))
Ki ([5]; Table 5, read-out: Ki hMC5-R): 2.56 nM
Ki ([6]; Table 5, read-out: Ki KMC4-R): 5.89 nM
Ki ([7]; Table 5, read-out: Ki hMC1-R): 0.537 nM
Ki ([8]; Table 5, read-out: Ki hMC3-R): 86.1 nM

CCCC[C@H](NC(C)=O)C(=O)N[C@H]1CSSC[C@@H](C(N)=O)NC(=O)[C@H](Cc2ccc3ccccc3c2)NC(=O)[C@H](CCCNC(=N)N)NC(=O)[C@@H](Cc2ccc3ccccc3c2)NC(=O)[C@H](Cc2c[nH]cn2)NC(=O)[C@@H](C)NC1=O [Ac-Nle-c(Cys-D-Ala-His-D-2-Nal-Arg-2-Nal-Cys)-NH2] (Ac-[Nle]C[dA]H[d2Nal]R[2Nal]C-NH2; disulfide 2-8)
Ki ([5]; Table 5, read-out: Ki hMC5-R): 94.6 nM
Ki ([6]; Table 5, read-out: Ki KMC4-R): 2.53 nM
Ki ([7]; Table 5, read-out: Ki hMC1-R): 32.5 nM
Ki ([8]; Table 5, read-out: Ki hMC3-R): 5.85 nM

C[C@@H](O)[C@H](NC(=O)[C@H]1CSSC[C@H](NC(=O)[C@H](N)Cc2ccccc2)C(=O)N[C@@H](Cc2c[nH]cn2)C(=O)N[C@H](Cc2ccccc2)C(=O)N[C@@H](CCCCNC(=N)N)C(=O)N[C@@H](Cc2c[nH]c3ccccc23)C(=O)NCCC(=O)N1)C(N)=O [D-Phe-c(Cys-His-D-Phe-hArg-Trp-β-Ala-D-Cys)-Thr-NH2] (H-[dF]CH[dF][hArg]W[βAla][dC]T-NH2; disulfide 2-8)
Ki ([5]; Table 5, read-out: Ki hMC5-R): 521 nM
Ki ([6]; Table 5, read-out: Ki KMC4-R): 10.3 nM
Ki ([7]; Table 5, read-out: Ki hMC1-R): 0.442 nM
Ki ([8]; Table 5, read-out: Ki hMC3-R): 123 nM

CC(=O)N[C@H]1CSSC[C@@H](C(=O)N2CCC[C@H]2C(=O)N2CCC[C@H]2C(=O)N[C@@H](CCCCN)C(=O)N[C@@H](CC(=O)O)C(N)=O)NC(=O)[C@H](C)NC(=O)[C@H](Cc2csc3ccccc23)NC(=O)[C@H](CCCNC(=N)N)NC(=O)[C@@H](Cc2ccc3ccccc3c2)NC(=O)[C@H](Cc2c[nH]cn2)NC(=O)[C@H](CCC(=O)O)NC1=O [Ac-c(Cys-Glu-His-D-2-Nal-Arg-Bal-Ala-Cys)-Pro-Pro-Lys-Asp-NH2] (Ac-CEH[d2Nal]R[Bta]ACPPKD-NH2; disulfide 1-8)
Ki ([5]; Table 6, read-out: Ki hMC5-R): 844 nM
Ki ([6]; Table 6, read-out: Ki hMC4-R): 0.586 nM
Ki ([7]; Table 6, read-out: Ki hMC1-R): 163 nM
Ki ([8]; Table 6, read-out: Ki hMC3-R): 23 nM

CCCC[C@H](NC(C)=O)C(=O)N[C@H]1CSSC[C@@H](C(N)=O)NC(=O)[C@H](Cc2c[nH]c3ccccc23)NC(=O)[C@H](CCCNC(=N)N)NC(=O)[C@@H](Cc2ccccc2)NC(=O)[C@H](Cc2c[nH]cn2)NC(=O)[C@@H](C)NC1=O [Ac-Nle-c(Cys-D-Ala-His-D-Phe-Arg-Trp-Cys)-NH2]
EC50 [1]: 0.33 nM
EC50 [2]: 2.4 nM
EC50 [3]: 0.078 nM
EC50 [4]: 420 nM
Ki ([5]; Ki hMC5-R, Table 5): 1800 nM
Ki ([6]; Ki KMC4-R, Table 5): 7.6 nM
Ki ([7]; Ki hMC1-R, Table 5): 11 nM
Ki ([8]; Ki hMC3-R, Table 5): 26 nM

CCCC[C@H](NC(C)=O)C(=O)N[C@H]1CSSC[C@@H](C(N)=O)NC(=O)CCCNC(=O)[C@H](Cc2c[nH]c3ccccc23)NC(=O)[C@H](CCCNC(=N)N)NC(=O)[C@@H](Cc2ccc3ccccc3c2)NC(=O)[C@H](Cc2c[nH]cn2)NC1=O [Ac-Nle-c(Cys-His-D-2-Nal-Arg-Trp-Gaba-Cys)-NH2] (Ac-[Nle]CH[d2Nal]RW[GABA]C-NH2; disulfide 2-8)
Kb [1]: 18.4 nM
EC50 [2, 9]: 0.231 nM
Kb [3]: 0.782 nM
EC50 [4, 10]: 0.153 nM
Ki ([5]; Table 5, read-out: Ki hMC5-R): 1.11 nM
Ki ([6]; Table 5, read-out: Ki KMC4-R): 0.375 nM
Ki ([7]; Table 5, read-out: Ki hMC1-R): 0.393 nM
Ki ([8]; Table 5, read-out: Ki hMC3-R): 1.86 nM

C[C@@H]1C(=O)N[C@@H](Cc2cnc[nH]2)C(=O)N[C@H](Cc2ccccc2)C(=O)N[C@@H](CCCNC(=N)N)C(=O)N[C@@H](Cc2c[nH]c3ccccc23)C(=O)N[C@H](C(N)=O)CCNC(=O)CC[C@@H]2NC(=O)N1C2=O [c[Hydantoin(C(O)-(Glu-D-Ala))-His-D-Phe-Arg-Trp-Dab]-NH2]
Ki ([5]; Table 7, read-out: Ki hMC5): 877 nM
Ki ([6]; Table 7, read-out: Ki hMC4): 12.7 nM
Ki ([7]; Table 7, read-out: Ki hMC1): 28 nM
Ki ([8]; Table 7, read-out: Ki hMC3): 90.5 nM

CCCC[C@H](NC(C)=O)C(=O)N[C@H]1CSSC[C@@H](C(N)=O)NC(=O)CCCCCNC(=O)[C@H](Cc2c[nH]c3ccccc23)NC(=O)[C@H](CCCNC(=N)N)NC(=O)[C@@H](Cc2ccc3ccccc3c2)NC(=O)[C@H](Cc2c[nH]cn2)NC1=O [Ac-Nle-c(Cys-His-D-2-Nal-Arg-Trp-Ahx-Cys)-NH2] (Ac-[Nle]CH[d2Nal]RW[Ahx]C-NH2; disulfide 2-8 (inferred))
Kb [1]: 10.8 nM
EC50 [2, 9]: 0.581 nM
Kb [3]: 0.967 nM
EC50 [4, 10]: 0.126 nM
Ki ([5]; Table 5, read-out: Ki hMC5-R): 0.366 nM
Ki ([6]; Table 5, read-out: Ki KMC4-R): 0.998 nM
Ki ([7]; Table 5, read-out: Ki hMC1-R): 0.333 nM
Ki ([8]; Table 5, read-out: Ki hMC3-R): 2.91 nM

C[C@@H](O)[C@H](NC(=O)[C@H]1CSSC[C@H](NC(=O)[C@H](N)Cc2ccccc2)C(=O)N[C@@H](Cc2c[nH]cn2)C(=O)N[C@H](Cc2ccccc2)C(=O)N[C@@H](CCCCNC(=N)N)C(=O)N[C@@H](Cc2ccc(-c3ccccc3)cc2)C(=O)NCCC(=O)N1)C(N)=O [D-Phe-c(Cys-His-D-Phe-hArg-Bip-β-Ala-D-Cys)-Thr-NH2] (H-[dF]CH[dF][hArg][Bip][βAla][dC]T-NH2; disulfide 2-8 (inferred))
Ki ([5]; Table 5, read-out: Ki hMC5-R): 1220 nM
Ki ([6]; Table 5, read-out: Ki KMC4-R): 172 nM
Ki ([7]; Table 5, read-out: Ki hMC1-R): 1.68 nM
Ki ([8]; Table 5, read-out: Ki hMC3-R): 1260 nM

C[C@@H](O)[C@H](NC(=O)[C@H]1CSSC[C@H](NC(=O)[C@H](N)Cc2ccccc2)C(=O)N[C@@H](Cc2c[nH]cn2)C(=O)N[C@H](Cc2ccccc2)C(=O)N[C@@H](CCCNC(=N)N)C(=O)N[C@@H](Cc2c[nH]c3ccccc23)C(=O)NCCCC(=O)N1)C(N)=O [D-Phe-c(Cys-His-D-Phe-Arg-Trp-Gaba-D-Cys)-Thr-NH2] (H-[dF]CH[dF]RW[GABA][dC]T-NH2; disulfide 2-8)
Ki ([5]; Table 5, read-out: Ki hMC5-R): 1260 nM
Ki ([6]; Table 5, read-out: Ki KMC4-R): 4.75 nM
Ki ([7]; Table 5, read-out: Ki hMC1-R): 0.42 nM
Ki ([8]; Table 5, read-out: Ki hMC3-R): 106 nM
